Measurements published in patent US12653190B2, “Heteroaryl-triazole compounds as pesticides” (Bayer Aktiengesellschaft, priority 2020, dated 2026).

Experiments:
Type in all cases: in vivo
[1] = tested on: southern root-knot nematode (Meloidogyne incognita); experiment: Meloidogyne incognita test; conditions: 20 ppm, after 14 days
Experimental: Meloidogyne incognita—Test
• Solvent: 125.0 parts by weight of acetone
To produce a suitable preparation of active compound, 1 part by weight of active compound is mixed with the stated amount of solvent, and the concentrate is diluted with water to the desired concentration. Vessels are filled with sand, a solution of the active ingredient, a suspension containing eggs and larvae of the southern root-knot nematode (Meloidogyne incognita) and salad seeds. The salad seeds germinate and the seedlings grow. Galls develop in the roots.
After 14 days the nematicidal activity is determined on the basis of the percentage of gall formation. 100% means no galls were found and 0% means the number of galls found on the roots of the treated plants was equal to that in untreated control plants.

[2] = tested on: Rhipicephalus (Boophilus) microplus larvae (strain Parkhurst, resistant against synthetic pyrethroids); experiment: Rhipicephalus (Boophilus) microplus in-vitro contact test, larval cattle tick; conditions: 5 μg/cm^2 (=500 g/ha), after 48 hours, read-out: efficacy (larvae dead or moribund)
Procedure, shortened: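 Acetone solutions coated onto glass tube walls, 900 ppm giving 5 μg/cm^2; 20–50 larvae per tube after solvent evaporation. Incubated 48 h at 27 °C, 85% relative humidity; efficacy from negative geotaxis, 100% meaning all larvae dead or moribund.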

[3] = tested on: adult engorged female ticks (Rhipicephalus microplus); experiment: Rhipicephalus (Boophilus) microplus injection test; conditions: 168 h, egg deposition monitored after 7 days, read-out: efficacy (infertile eggs); for pest or weed control at 4 µg/tick: 4 μg/tick injected; for pest or weed control at 20 µg/tick: 20 μg/tick injected
Procedure, shortened: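 Five adult engorged female ticks each injected with 1 μL of DMSO compound solution into the abdomen, then kept in a climate chamber. Fertile egg deposition assessed after 7 days, with hatching followed to about 42 days; efficacy 100% means all eggs infertile, 0% all fertile.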

[4] = tested on: fall armyworm larvae (Spodoptera frugiperda); experiment: Spodoptera frugiperda spray test; conditions: in Zea mays, 168 h
Procedure, shortened: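 Maize leaf sections were sprayed with compound in acetone/dimethylformamide diluted in water with 1000 ppm emulsifier, dried, then infested with larvae. Mortality in % was scored after 7 days, 100% meaning all caterpillars killed.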

[5] = tested on: larvae of the southern green stink bug (Nezara viridula); experiment: Nezara viridula spray test; conditions: 96 h, after 4 days, barley plants
Procedure, shortened: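 Percent mortality of southern green stink bug larvae was recorded at day 4, with 100% meaning all dead. The larvae were placed on barley sprayed with the test solution. That solution was prepared from acetone/dimethylformamide concentrate diluted in emulsifier-containing water (1000 ppm).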

[6] = tested on: larvae of the banded cucumber beetle (Diabrotica balteata); experiment: Diabrotica balteata spray test; conditions: 168 h, after 7 days, wheat seeds, read-out: efficacy (seedling growth); for pest or weed control at 32 µg/disc, 100 g/ha: 100 g/ha (=32 μg/well); for pest or weed control at 160 µg/disc, 500 g/ha: 500 g/ha (=160 μg/well)
Procedure, shortened: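 Efficacy is seedling survival after 7 days, where 0% means no seedlings grew and 100% means growth equal to untreated, uninfested controls. Wheat seedlings, germinated on agar for 1 day, were sprayed with the aqueous emulsifier dilution (acetone/DMF solvent) and then exposed to 10–20 banded cucumber beetle larvae.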

[7] = tested on: adult flies Musca domestica strain WHO-N; experiment: Musca domestica test (MUSCDO surface treatment & contact assay); conditions: surface concentration 20 mg/m^2, 30 minutes exposure, 24 hours after contact, read-out: efficacy (mortality)
Experimental: Musca domestica Test (MUSCDO Surface Treatment & Contact Assay)
• Solvent: Aceton+2000 ppm rapeseed oil methyl ester (RME)
In order to produce a sufficient, active ingredient containing solution it is necessary to solve the test compound in the solvent-mix (acetone at 2 mg/ml/RME 2000 ppm). This solution is pipetted onto a glazed tile and after evaporation of the acetone, adult flies of the species Musca domestica strain WHO-N are placed onto the dried surface. The exposure time is 30 minutes.
Mortality in percent (%) is determined 24 hours after contact of the insects to the treated surface. 100% mortality means that all tested insects are dead, whereas 0% means that no insect died.

[8] = tested on: brown planthopper (Nilaparvata lugens); experiment: Nilaparvata lugens spray test; conditions: 96 h, after 4 days, rice plants
Experimental: Nilaparvata lugens—Spray Test • Solvent: 78.0 parts by weight of acetone • 1.5 parts by weight of dimethylformamide • Emulsifier: alkylarylpolyglycol ether
To produce a suitable preparation of active compound, 1 part by weight of active compound is mixed with the stated amount of solvents and is diluted with water, containing an emulsifier concentration of 1000 ppm, to the desired concentration. Further test concentrations are prepared by dilution with emulsifier containing water.
Rice plants (Oryza sativa) are sprayed with a preparation of the active ingredient of the desired concentration and the plants are infested with the brown planthopper (Nilaparvata lugens).
After 4 days mortality in % is determined. 100% means all planthoppers have been killed and 0% means none of the planthoppers have been killed.

[9] = tested on: adult unfed cat fleas (Ctenocephalides felis); experiment: Ctenocephalides felis oral test; conditions: 48 h, 100 ppm in cattle blood, after 2 days
Experimental: Ctenocephalides felis—Oral Test
• Solvent: dimethyl sulfoxide
To produce a suitable preparation of active compound, 10 mg of active compound are dissolved in 0.5 mL solvent, and the concentrate is diluted with cattle blood to the desired concentration.
Approximately 20 adult unfed cat fleas (Ctenocephalides felts) are placed in flea chambers. The blood chamber, sealed with parafilm on the bottom, are filled with cattle blood supplied with compound solution and placed on the gauze covered top of the flea chamber, so that the fleas are able to suck the blood. The blood chamber is heated to 37° C. whereas the flea chamber is kept at room temperature.
After 2 days mortality in % is determined. 100% means all the fleas have been killed; 0% means none of the fleas have been killed.

[10] = tested on: adult cat fleas (Ctenocephalides felis); experiment: Ctenocephalides felis in-vitro contact test, adult cat flea; conditions: 5 μg/cm^2 (=500 g/ha), after 48 hours, read-out: efficacy (fleas dead or moribund)
Experimental: Ctenocephalides felis—In-Vitro Contact Tests Adult Cat Flea
9 mg compound is solved in 1 mL acetone and diluted with acetone to the desired concentration. 250 μL of the test solution is filled in 25 mL glass test tubes and homogeneously distributed on the inner walls by rotation and tilting on a shaking device (2 h at 30 rpm). With a compound concentration of 900 ppm, an inner surface of 44.7 cm^2 and a homogeneous distribution, a dose of 5 μg/cm^2 is achieved.
After the solvent has evaporated, each test tube is filled with 5-10 adult cat fleas (Ctenocephalides felis), closed with a perforated lid and incubated in a lying position at room temperature and relative humidity. After 48 hours efficacy is determined. The fleas are patted on the ground of the tubes and are incubated on a heating plate at 45-50° C. for at most 5 minutes Immotile or uncoordinated moving fleas, which are not able to escape the heat by climbing upwards, are marked as dead or moribund.
An efficacy of 100% means all fleas are dead or moribund; 0% means no fleas are dead or moribund.

[11] = tested on: green peach aphid (Myzus persicae); experiment: Myzus persicae spray test; conditions: foliar, 120 h, after 5 days, Chinese cabbage leaf disks
Procedure, shortened: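 Chinese cabbage leaf disks infested with all aphid instars were sprayed with compound in acetone/DMF, diluted in water with 1000 ppm alkylarylpolyglycol ether emulsifier. Mortality (%) scored after 5 days, 100% meaning all aphids killed.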

For `C[C@H](NC(=O)c1cc(Cl)cc(Oc2ccc(F)cc2)c1)c1ncnn1-c1ccc(C#N)cn1` [Example I-9], the “nematicidal activity (gall formation)” value [1] was 90%, the pest or weed control at 5 µg/cm2, 5 µg/cm2 [2] was 90% and the pest or weed control at 4 µg/tick [3] was 100%. It also gave a pest or weed control at 20 µg/tick [3] of 100%.
`C[C@H](NC(=O)c1cc(Cl)cc(C(C)(C)C#N)c1)c1nc(C2CC2)nn1-c1ccc(C#N)cn1` [Example I-38] was tested, and the mortality at 100 g/ha [4] was 100%, the mortality at 100 g/ha [5] was 90% and the mortality at 500 g/ha [5] was 100%. It also gave a pest or weed control at 32 µg/disc, 100 g/ha [6] of 100%, a mortality at 20 mg/m2 [7] of 80 to 100% and a mortality at 500 g/ha [8] of 100%.
Molecule `Cc1cc(OC2COC2)cc(C(=O)N[C@@H](C)c2ncnn2-c2ccc(C#N)cn2)c1` [Example I-6, N-{(1S)-1-[1-(5-Cyanopyridin-2-yl)-1H-1,2,4-triazol-5-yl]ethyl}-3-methyl-5-(oxetan-3-yloxy)benzamide] has a mortality at 100 ppm [9] of 100%, a mortality at 500 g/ha [4] of 100% and a mortality at 100 g/ha [5] of 100%. For the same molecule, the pest or weed control at 5 µg/cm2, 5 µg/cm2 [10] was 100%, the pest or weed control at 160 µg/disc, 500 g/ha [6] was 100% and the pest or weed control at 5 µg/cm2, 5 µg/cm2 [2] was 90%. For the same molecule, the mortality at 100 g/ha [8] was 100%, the pest or weed control at 4 µg/tick [3] was 100% and the pest or weed control at 20 µg/tick [3] was 100%.
`Cc1cc(OC2CCCC2)cc(C(=O)N[C@@H](C)c2ncnn2-c2ccc(C#N)cn2)c1` [Example I-4, N-{(1S)-1-[1-(5-Cyanopyridin-2-yl)-1H-1,2,4-triazol-5-yl]ethyl}-3-(cyclopentyloxy)-5-methylbenzamide] was tested, and the mortality at 100 g/ha [5] was 100%, the pest or weed control at 160 µg/disc, 500 g/ha [6] was 100% and the mortality at 100 g/ha [8] was 100%. The pest or weed control at 4 µg/tick [3] was 100% and the pest or weed control at 20 µg/tick [3] was 100%.
With `CCN(C)C(=O)c1ccc(-n2nc(C)nc2[C@H](C)NC(=O)c2cc(Cl)cc(C(C)(C)C#N)c2)nc1` [Example I-52, 6-[5-[(1S)-1-[[3-chloro-5-(1-cyano-1-methyl-ethyl)benzoyl]amino]ethyl]-3-methyl-1,2,4-triazol-1-yl]-N-ethyl-N-methyl-pyridine-3-carboxamide] the mortality at 100 g/ha [4] was 100%, the mortality at 500 g/ha [5] was 100% and the “nematicidal activity (gall formation)” value [1] was 100%. It also gave a pest or weed control at 5 µg/cm2, 5 µg/cm2 [2] of 90%.
For `C[C@H](NC(=O)c1cc(OC(F)(F)F)cc(C(C)(C)C#N)c1)c1ncnn1-c1cc(C#N)ncn1` [Example I-66], the mortality at 100 g/ha [4] was 100%, the mortality at 500 g/ha [5] was 100% and the pest or weed control at 32 µg/disc, 100 g/ha [6] was 100%. The mortality at 100 g/ha [11] was 100% and the mortality at 500 g/ha [8] was 100%.
With `C[C@H](NC(=O)c1cc(Br)cc(C(F)(F)c2ccc(F)cc2)c1)c1ncnn1-c1ccc(C#N)cn1` [Example I-25] the mortality at 100 ppm [9] was 90%, the mortality at 100 g/ha [4] was 100% and the “nematicidal activity (gall formation)” value [1] was 90%. It also gave a pest or weed control at 5 µg/cm2, 5 µg/cm2 [2] of 100% and a pest or weed control at 4 µg/tick [3] of 100%.
`Cc1nc([C@H](C)NC(=O)c2cc(OC(F)(F)F)cc(C(C)(C)C#N)c2)n(-c2ncc(C#N)s2)n1` [Example I-51] gave a mortality at 100 g/ha [4] of 100%, a mortality at 500 g/ha [5] of 100% and a pest or weed control at 32 µg/disc, 100 g/ha [6] of 100%. It also gave a mortality at 500 g/ha [8] of 100%.
